Patent US20230121771A1, “A PHARMACEUTICAL COMBINATION OF AN ARTEMISININ COMPOUND, 5-AMINOLEVULINIC ACID OR METHYL-5-AMINOLEVULINIC ACID AND A CHEMOTHERAPEUTIC AGENT” (JLP Health GmbH, priority 2020, published 2023)

Columns and labels:
Type in all cases: cell-based
Jurkat cells = test: JC-1 staining of mitochondrial membrane potential; details: 48 h, artemisinin 0.5 µM, 5-ALA 0.25 mM
Protocol: Cells were collected, washed with 1xPBS, incubated with 2 µM JC-1 in 1PBS (MitoProbe JC-1 Assay Kit-1, Invitrogen, M34152) for 35 min at 37° C., washed twice, and analysed using flow cytometry in the red (PE channel) and green (FITC channel) fluorescence spectrum.

mouse ESCs = test: Cell survival of artemisinin treated mouse embryonic stem cells (Alamar Blue, 48 h); details: artemisinin combined with acifluorfen or 5-ALA (0.5 mM)
Protocol: For dosage responses, cells were seeded in 96-wells (25.000/ 96-well, in triplicate -where indicated) and subjected to compounds for 48 h. Cell viability was assessed using automated cell counting (high-throughput flow cytometry), Alamar Blue staining (Invitrogen, DAL1100) or CellTiter-Glo Luminescent Assay (Promega, G7570, according to the manufacturer’s protocol) respectively.

[1] = test system: human glioblastoma-like neoplastic organoid model; test: Compound profiling in human glioblastoma-like neoplastic organoid model (p53, NF1, PTEN mutated); details: compound alone
Protocol: Tumor initiation was induced by either oncogene amplification, using a Sleeping Beauty (SB) transposase, or mutation of tumor suppressor genes, using the CRISPR-Cas9 system in day 10 old embryoid bodies (EBs). Plasmids carrying the transposase as well as GFP and the desired oncogenes or expressing Cas9 nuclease were introduced by electroporation. In brief, a mixture of 1 μg DNA and 100 μl nucleofector solution was added to 10 EBs and transferred to a nucleofection cuvette. The Lonza Nucleofector 2b and the A-023 program were used for electroporation/ nucleofection. […] Cerebral tumor organoids were treated with different compounds and the survival and growth of transformed as well as untransformed neurons was monitored. Fluorescence labeling of tumor cells allowed clear distinguishability of transformed cells as compared to non-labeled throughout the experiment using brightfield microscopy, as well as fluorescence imaging. The transformed tumor tissue and untransformed neurons within the same organoid was monitored using fluorescence imaging, as well as brightfield microscopy throughout the experiment. At the endpoint of the treatment (d5 or d7 respectively), the number of GFP-positive cells was assessed by flow cytometry. […] Brightfield and green fluorescence images were taken from the same area. […]

[2] = test system: human cerebral tumor organoids (CNS-PNET); test: Compound profiling in CNS-PNET cerebral tumor organoids (GFP-positive tumor cells)
Protocol: Tumor initiation was induced by either oncogene amplification, using a Sleeping Beauty (SB) transposase, or mutation of tumor suppressor genes, using the CRISPR-Cas9 system in day 10 old embryoid bodies (EBs). Plasmids carrying the transposase as well as GFP and the desired oncogenes or expressing Cas9 nuclease were introduced by electroporation. In brief, a mixture of 1 μg DNA and 100 μl nucleofector solution was added to 10 EBs and transferred to a nucleofection cuvette. The Lonza Nucleofector 2b and the A-023 program were used for electroporation/ nucleofection. Thereafter, EBs were transferred into 10 cm dishes containing differentiation media containing vitamin A and embedded into Matrigel 24 hours later. Two different types of tumors were initiated {Bian:2018gs}: Central nervous system primitive neuroectodermal tumors (CNS-PNET) were induced by the overexpression of Myc. Glioblastoma-like tumor group 2 (GBM-2) was caused by mutagenesis of the tumor suppressor genes p53, NF1 and PTEN. All plasmids were designed by Shan Bian {Bian, S. et al. Genetically engineered cerebral organoids model brain tumor formation. Nat. Methods 15, 631-639 (2018)}. Cerebral tumor organoids were treated with different compounds and the survival and growth of transformed as well as untransformed neurons was monitored. Fluorescence labeling of tumor cells allowed clear distinguishability of transformed cells as compared to non-labeled throughout the experiment using brightfield microscopy, as well as fluorescence imaging. The transformed tumor tissue and untransformed neurons within the same organoid was monitored using fluorescence imaging, as well as brightfield microscopy throughout the experiment. At the endpoint of the treatment (d5 or d7 respectively), the number of GFP-positive cells was assessed by flow cytometry. Cerebral (tumor) organoids were enzymatically and mechanically dissociated using 1x trypsin, 35-45 min incubation at 37° C., and gentle shaking. […] Single cells in suspension were counterstained with DAPI or a viability dye (eBioscienceTM Fixable Viability Dye eFluorTM 780, 65-0865-18), and analysed using flow cytometry (BD LSRFortessa HTS Cell Analyzer). The amounts of GFP-positive cells were analyzed. […] Brightfield and green fluorescence images were taken from the same area. Additionally, for image analyses, the Celldiscoverer 7 (Zeiss), a fully integrated high-end automated live cell imaging system, was used. Cerebral organoids were fixed in 4% PFA (room temperature, 1 h), incubated with 30% sucrose (4° C., o/n), OCT (Tissue-tek OCT Compound, […], 4583) embedded and 20 μm sections were cryostat cut (-12/-14° C.). […] Fluorescence Mounting Medium (Dako, S302380) was used for mounting the sample slides. […]

[3] = test system: neuroblastoma cells (SHSY5Y), Jurkat and HL-60 cells; test: ROS levels by Dihydroethidium (DHE) staining and flow cytometry in cell lines; details: SHSY5Y and Jurkat cells; artemisinin 0.5 µM, 5-ALA 0.25 mM
Protocol: Treated cells were collected, washed with 1x HBSS (without Ca2+ and Mg2+), incubated with 1mM DHE (Dihydroethidium (Hydroethidine), Invitrogen, D11347) in 1x HBSS for 45 min at 37° C., washed twice and counterstained with DAPI or a viability dye (eBioscience™ Fixable Viability Dye eFluor™ 780, 65-0865-18) for 10 min on ice. Cells were then collected, strained and analysed using flow cytometry for DHE in the red fluorescent spectrum (PE channel).

For NCC(=O)CCC(=O)O [5-ALA, 5-amino-4-oxopentanoic acid], the “mitochondrial polarisation (ΔΨm, JC-1)” value (Jurkat cells) was “increased mitochondrial polarisation”, the “susceptibility to artemisinin (cell survival)” value (mouse ESCs) was “increased the sensitivity to the anti-malarial compound” and the “survival of untransformed and transformed cells” value [1] was “little effect on the survival of untransformed cells as well as transformed cells”. For the same compound, the “GFP+ tumor tissue, immunohistochemistry of sectioned organoids” value [2] was “losss of GFP+ tumor tissue”, the “effect on non-transformed neuronal tissues in the cerebral organoids” value ([2]; Sox2 expressing cells, rosette-like structures) was “no apparent effect on the non-transformed neuronal tissues” and the “growth of GFP-positive tumor organoids” value ([2]; very high concentrations, compound alone) was “notable growth inhibition”. For the same compound, the “ROS levels (DHE staining, MFI)” value [3] was “triggered ROS”.
